Laboratory results taken from patent US8481536B2, “Benzotriazine inhibitors of kinases” (TargeGen, Inc., priority 2004, dated 2013).

target: Recombinant human c-Src (Homo sapiens (Human), UniProt P12931); assay: Src kinase inhibition in vitro (luciferase-based residual ATP, KinaseGlo); format: biochemical; details: ATP 3 μM, PTK2 substrate, 90 minutes at room temperature
Method: (§1) The ability of compounds of the present invention to inhibit the activity of three groups of kinases was tested. Kinases tested included the src family (primarily src and yes), some angiogenic growth factor receptors (Fgfr1, Vegfr, and Pdgfrβ) and the ephrin, EphB4. All kinase reactions were conducted in 96-well plates with a final reaction volume of 50 ul.
After reacting for about 90 minutes at room temperature, residual ATP was determined using a luciferase-based assay (KinaseGlo, Promega Corp.) as a measure of kinase activity. Data from four wells were then averaged and used to determine IC50 values for the test compounds (Prism software package, GraphPad Software, San Diego Calif.).
(§2) The test results for inhibition of Src kinase are presented in Table 1, and the test results for inhibition of some other kinases (i.e., Yes, EphB4, and Pdgfrβ) are presented in Table 2.

Recombinant human c-Src, sequence (P12931 whole entry, looked up): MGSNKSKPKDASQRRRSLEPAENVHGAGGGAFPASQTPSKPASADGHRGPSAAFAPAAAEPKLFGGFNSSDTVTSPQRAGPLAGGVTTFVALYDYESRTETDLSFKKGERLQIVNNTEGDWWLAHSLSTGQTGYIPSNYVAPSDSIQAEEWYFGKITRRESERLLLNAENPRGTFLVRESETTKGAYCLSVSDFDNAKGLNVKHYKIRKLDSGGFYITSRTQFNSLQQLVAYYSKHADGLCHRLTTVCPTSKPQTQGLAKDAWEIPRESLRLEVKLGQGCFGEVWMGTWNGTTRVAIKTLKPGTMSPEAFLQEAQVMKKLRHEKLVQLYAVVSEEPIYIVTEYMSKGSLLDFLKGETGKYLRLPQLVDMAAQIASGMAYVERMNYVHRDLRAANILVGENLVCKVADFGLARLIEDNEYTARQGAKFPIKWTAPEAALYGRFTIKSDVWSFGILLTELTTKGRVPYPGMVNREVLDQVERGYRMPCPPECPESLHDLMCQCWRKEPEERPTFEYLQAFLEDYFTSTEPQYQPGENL

First: Cc1ccccc1-c1cc2nnc(Nc3ccc(S(=O)(=O)NCCN4CCCC4)cc3)nc2cc1C [4-(6-methyl-7-o-tolyl-benzo[1,2,4]triazin-3-ylamino)-N-(2-pyrrolidin-1-yl-ethyl)-benzenesulfonamide]
Second: Cc1cc(F)ccc1-c1cc2nnc(Nc3ccc(S(=O)(=O)NCCN4CCCC4)cc3)nc2cc1C [4-[7-(4-fluoro-2-methyl-phenyl)-6-methyl-benzo[1,2,4]triazin-3-ylamino]-N-(2-pyrrolidin-1-yl-ethyl)-benzenesulfonamide]
The IC50 of the first is 2-fold lower: 10.2 nM for the first, 20.4 nM for the second.

Compared with `Cc1cccc(C)c1-c1cc(C)c2nc(Nc3cccc(OCCN4CCN(C)CC4)c3)nnc2c1` [[7-(2,6-dimethyl-phenyl)-5-methyl-benzo[1,2,4]triazin-3-yl]-{3-[2-(4-methyl-piperazin-1-yl)-ethoxy]-phenyl}-amine], `Cc1cccc(C)c1-c1cc(C)c2nc(Nc3cccc(S(=O)(=O)N4CCN(C)CC4)c3)nnc2c1` [[7-(2,6-dimethyl-phenyl)-5-methyl-benzo[1,2,4]triazin-3-yl]-[3-(4-methyl-piperazine-1-sulfonyl)-phenyl]-amine] is 8.2-fold higher in IC50: 39.5 nM for the first, 322 nM for the second. The first is the more potent here.

First: Cc1cc(N2CCCCC2)cc2nnc(Nc3cccnc3)nc12 [(5-methyl-7-piperidin-1-yl-benzo[1,2,4]triazin-3-yl)-pyridin-3-yl-amine]
Second: Cc1noc(C)c1-c1cc(C)c2nc(Nc3ccc(OCCN4CCCC4)cc3)nnc2c1 [[7-(3,5-dimethyl-isoxazol-4-yl)-5-methyl-benzo[1,2,4]triazin-3-yl]-[4-(2-pyrrolidin-1-yl-ethoxy)-phenyl]-amine]
The IC50 of the first is higher: > 10000 nM for the first, 207 nM for the second.

Compared with `Cc1cc(-c2cccc(N)c2)cc2nnc(Nc3ccc(S(=O)(=O)NCCN4CCCC4)cc3)nc12` [4-[7-(3-amino-phenyl)-5-methyl-benzo[1,2,4]triazin-3-ylamino]-N-(2-pyrrolidin-1-yl-ethyl)-benzenesulfonamide], `Cc1cccc(C)c1-c1ccc2nc(Nc3ccc(OCCN4CCCC4)cc3)nnc2c1` [[7-(2,6-dimethyl-phenyl)-benzo[1,2,4]triazin-3-yl]-[4-(2-pyrrolidin-1-yl-ethoxy)-phenyl]-amine] is 19-fold lower in IC50: 282 nM for the first, 15 nM for the second.

target: Pdgfrβ (Homo sapiens (Human), UniProt P09619); assay: Pdgfrβ kinase inhibition in vitro (luciferase-based residual ATP); format: biochemical; details: 500 nM ATP, PTK2 peptide, 60 minutes at 37 C; read-out: PDGFR IC50
Sequence (P09619 33-1106): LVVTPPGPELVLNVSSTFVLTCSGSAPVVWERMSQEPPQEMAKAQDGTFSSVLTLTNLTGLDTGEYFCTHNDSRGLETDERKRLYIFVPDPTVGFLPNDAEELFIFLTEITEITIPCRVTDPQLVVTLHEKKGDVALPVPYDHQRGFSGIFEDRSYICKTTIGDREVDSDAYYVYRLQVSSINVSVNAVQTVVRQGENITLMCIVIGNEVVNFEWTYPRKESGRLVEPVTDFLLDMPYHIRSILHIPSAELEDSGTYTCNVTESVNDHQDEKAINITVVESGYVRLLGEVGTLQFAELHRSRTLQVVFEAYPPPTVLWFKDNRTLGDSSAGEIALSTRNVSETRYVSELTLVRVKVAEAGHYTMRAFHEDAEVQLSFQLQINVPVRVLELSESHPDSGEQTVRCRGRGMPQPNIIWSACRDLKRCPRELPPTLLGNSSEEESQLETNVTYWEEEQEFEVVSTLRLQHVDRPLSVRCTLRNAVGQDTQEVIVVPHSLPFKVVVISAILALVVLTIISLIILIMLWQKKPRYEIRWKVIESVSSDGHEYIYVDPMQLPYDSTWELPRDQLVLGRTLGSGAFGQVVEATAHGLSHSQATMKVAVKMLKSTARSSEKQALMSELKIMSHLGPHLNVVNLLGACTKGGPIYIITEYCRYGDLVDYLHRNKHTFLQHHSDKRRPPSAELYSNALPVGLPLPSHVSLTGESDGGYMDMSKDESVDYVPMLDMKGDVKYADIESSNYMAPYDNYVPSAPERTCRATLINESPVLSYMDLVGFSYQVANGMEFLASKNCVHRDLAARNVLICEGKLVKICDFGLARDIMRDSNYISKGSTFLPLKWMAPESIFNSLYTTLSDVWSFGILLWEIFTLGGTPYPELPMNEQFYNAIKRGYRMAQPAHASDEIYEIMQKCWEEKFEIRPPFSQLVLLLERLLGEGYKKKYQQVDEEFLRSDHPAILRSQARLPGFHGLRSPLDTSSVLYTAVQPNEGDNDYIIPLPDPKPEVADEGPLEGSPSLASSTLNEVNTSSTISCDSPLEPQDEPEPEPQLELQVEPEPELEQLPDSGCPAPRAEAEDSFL
Method: as §1
Pdgfrβ (0.16 ug/well, Panvera/Invitrogen) 500 nM ATP and the PTK2 peptide (700 uM) were combined with compound and reaction buffer as noted above for src. The reaction was incubated for 60 minutes at 37 C, and the residual ATP concentration was determined using the luciferase-based technique also noted above.
as §2

Going from `Cc1ccccc1-c1cc2nnc(Nc3ccc(S(=O)(=O)NCCN4CCCC4)cc3)nc2cc1C` [4-(6-methyl-7-o-tolyl-benzo[1,2,4]triazin-3-ylamino)-N-(2-pyrrolidin-1-yl-ethyl)-benzenesulfonamide] to `COc1cc2nc(Nc3ccc(S(=O)(=O)NCCN4CCCC4)cc3)nnc2cc1-c1ccccc1C` [4-(6-methoxy-7-o-tolyl-benzo[1,2,4]triazin-3-ylamino)-N-(2-pyrrolidin-1-yl-ethyl)-benzenesulfonamide], the IC50 rises from 24.3 nM to 39.3 nM (1.6-fold). The first is the more potent here.

Going from `Cc1cccc(C)c1-c1cc(C)c2nc(Nc3ccccc3)nnc2c1` [[7-(2,6-dimethyl-phenyl)-5-methyl-benzo[1,2,4]triazin-3-yl]-phenyl-amine] to `Cc1cccc(C)c1-c1cc(C)c2nc(Nc3cccc(S(N)(=O)=O)c3)nnc2c1` [3-[7-(2,6-dimethyl-phenyl)-5-methyl-benzo[1,2,4]triazin-3-ylamino]-benzenesulfonamide], the IC50 falls from 628 nM to 16.3 nM (39-fold).

Going from `Cc1cc(F)ccc1-c1cc2nnc(Nc3ccc(S(=O)(=O)NCCN4CCCC4)cc3)nc2cc1C` [4-[7-(4-fluoro-2-methyl-phenyl)-6-methyl-benzo[1,2,4]triazin-3-ylamino]-N-(2-pyrrolidin-1-yl-ethyl)-benzenesulfonamide] to `Cc1cc2nc(Nc3ccc(S(=O)(=O)NCCN4CCCC4)cc3)nnc2cc1-c1cc(O)ccc1Cl`, the IC50 falls from 73.7 nM to 1.9 nM (39-fold). The second is the more potent here.

First: Cc1cc(-c2cc(O)ccc2Cl)cc2nnc(Nc3ccc(N4CCOCC4)nc3)nc12 [4-chloro-3-[5-methyl-3-(6-morpholin-4-yl-pyridin-3-ylamino)-benzo[1,2,4]triazin-7-yl]-phenol]
Second: Cc1cc(-c2cc(O)ccc2Cl)cc2nnc(Nc3cccnc3)nc12 [4-chloro-3-[5-methyl-3-(pyridin-3-ylamino)-benzo[1,2,4]triazin-7-yl]-phenol]
The IC50 of the first is 11-fold lower: 2.1 nM for the first, 23.5 nM for the second.

`Cc1cccc(C)c1-c1cc(C)c2nc(Nc3cccc(OCCN4CCN(C)CC4)c3)nnc2c1` [[7-(2,6-dimethyl-phenyl)-5-methyl-benzo[1,2,4]triazin-3-yl]-{3-[2-(4-methyl-piperazin-1-yl)-ethoxy]-phenyl}-amine] and `Cc1cccc(C)c1-c1cc(C)c2nc(Nc3cccc(OCCCN4CCN(C)CC4)c3)nnc2c1` [[7-(2,6-dimethyl-phenyl)-5-methyl-benzo[1,2,4]triazin-3-yl]-{3-[3-(4-methyl-piperazin-1-yl)-propoxy]-phenyl}-amine] are within 1.5-fold of each other in IC50: 69.1 nM for the first, 76.3 nM for the second.

Compared with `Cc1cccc(C)c1-c1cc(C)c2nc(Nc3cccc(S(=O)(=O)N4CCN(C)CC4)c3)nnc2c1` [[7-(2,6-dimethyl-phenyl)-5-methyl-benzo[1,2,4]triazin-3-yl]-[3-(4-methyl-piperazine-1-sulfonyl)-phenyl]-amine], `Cc1cccc(C)c1-c1cc(C)c2nc(Nc3ccc(OCCCN4CCN(C)CC4)cc3)nnc2c1` [[7-(2,6-dimethyl-phenyl)-5-methyl-benzo[1,2,4]triazin-3-yl]-{4-[3-(4-methyl-piperazin-1-yl)-propoxy]-phenyl}-amine] is 1.6-fold lower in IC50: 81.3 nM for the first, 50.3 nM for the second.

First: Cc1cc(-c2cc(O)ccc2Cl)cc2nnc(Nc3cccc(C(=O)NCCN(C)C)c3)nc12 [3-[7-(2-chloro-5-hydroxy-phenyl)-5-methyl-benzo[1,2,4]triazin-3-ylamino]-N-(2-dimethylamino-ethyl)-benzamide]
Second: Cc1cc(-c2cc(O)ccc2Cl)cc2nnc(Nc3cccc(N(C)C)c3)nc12 [4-chloro-3-[3-(3-dimethylamino-phenylamino)-5-methyl-benzo[1,2,4]triazin-7-yl]-phenol]
The IC50 of the first is 3.9-fold lower: 5.3 nM for the first, 20.8 nM for the second. The first is the more potent here.

`Cc1cc2nc(Nc3ccc(C(=O)N4CCN(C)CC4)cc3)nnc2cc1-c1cc(O)ccc1Cl` [{4-[7-(2-chloro-5-hydroxy-phenyl)-6-methyl-benzo[1,2,4]triazin-3-ylamino]-phenyl}-(4-methyl-piperazin-1-yl)-methanone] and `COc1ccc(Cl)c(-c2cc3nnc(Nc4ccc(C(=O)N5CCN(C)CC5)cc4)nc3cc2C)c1` [{4-[7-(2-chloro-5-methoxy-phenyl)-6-methyl-benzo[1,2,4]triazin-3-ylamino]-phenyl}-(4-methyl-piperazin-1-yl)-methanone] are within 1.5-fold of each other in IC50: 3.7 nM for the first, 3.5 nM for the second.

Compared with `Cc1cc(-c2cc(O)ccc2Cl)cc2nnc(Nc3ccc(C(=O)N4CCNCC4)cc3)nc12` [{4-[7-(2-chloro-5-hydroxy-phenyl)-5-methyl-benzo[1,2,4]triazin-3-ylamino]-phenyl}-piperazin-1-yl-methanone], `Cc1cc(-c2cc(O)ccc2Cl)cc2nnc(Nc3ccc(S(=O)(=O)C4CCNCC4)cc3)nc12` [4-chloro-3-{5-methyl-3-[4-(piperidine-4-sulfonyl)-phenylamino]-benzo[1,2,4]triazin-7-yl}-phenol] is 2.3-fold higher in IC50: 1.2 nM for the first, 2.8 nM for the second.

`Cc1cc(-c2cc(O)ccc2Cl)cc2nnc(Nc3ccc(S(=O)(=O)N(C)CCN4CCCC4)cc3)nc12` [4-[7-(2-chloro-5-hydroxy-phenyl)-5-methyl-benzo[1,2,4]triazin-3-ylamino]-N-methyl-N-(2-pyrrolidin-1-yl-ethyl)-benzenesulfonamide] and `Cc1cc(-c2cc(O)ccc2Cl)cc2nnc(Nc3ccc(S(=O)(=O)CCCN4CCCC4)cc3)nc12` are within 1.5-fold of each other in IC50: 3.1 nM for the first, 2.9 nM for the second.

First: Cc1ccc(Cl)cc1-c1cc2nnc(Nc3ccc(C(=O)N4CCN(C)CC4)cc3)nc2cc1C [{4-[7-(5-chloro-2-methyl-phenyl)-6-methyl-benzo[1,2,4]triazin-3-ylamino]-phenyl}-(4-methyl-piperazin-1-yl)-methanone]
Second: Cc1ccc(F)cc1-c1cc2nnc(Nc3ccc(OCCN4CCCC4)cc3)nc2cc1C [[7-(5-fluoro-2-methyl-phenyl)-6-methyl-benzo[1,2,4]triazin-3-yl]-[4-(2-pyrrolidin-1-yl-ethoxy)-phenyl]-amine]
The IC50 of the first is 4.4-fold lower: 6 nM for the first, 26.1 nM for the second.

Compared with `Cc1cccc(C)c1-c1cc(C)c2nc(Nc3nc(C(=O)NCCN4CCCC4)cs3)nnc2c1` [2-[7-(2,6-dimethyl-phenyl)-5-methyl-benzo[1,2,4]triazin-3-ylamino]-thiazole-4-carboxylic acid (2-pyrrolidin-1-yl-ethyl)-amide], `Cc1cccc(C)c1-c1cc(C)c2nc(Nc3ccc(C(=O)NCCN4CCCC4)o3)nnc2c1` [5-[7-(2,6-dimethyl-phenyl)-5-methyl-benzo[1,2,4]triazin-3-ylamino]-furan-2-carboxylic acid (2-pyrrolidin-1-yl-ethyl)-amide] is 1.9-fold higher in IC50: 60 nM for the first, 117 nM for the second.

Compared with `Cc1cc(-c2cc(O)ccc2Cl)cc2nnc(Nc3ccc(S(=O)(=O)NCCN4CCCC4)cc3)nc12`, `Cc1cc(-c2c(Cl)ccc(O)c2Cl)cc2nnc(Nc3ccc(S(=O)(=O)NCCN4CCCC4)cc3)nc12` [4-[7-(2,6-dichloro-3-hydroxy-phenyl)-5-methyl-benzo[1,2,4]triazin-3-ylamino]-N-(2-pyrrolidin-1-yl-ethyl)-benzenesulfonamide] is 4.7-fold higher in IC50: 1.7 nM for the first, 8 nM for the second.

First: Cc1cc(-c2cc(O)ccc2Cl)cc2nnc(Nc3ccc(C(=O)NCCN4CCCC4)o3)nc12 [5-[7-(2-chloro-5-hydroxy-phenyl)-5-methyl-benzo[1,2,4]triazin-3-ylamino]-furan-2-carboxylic acid (2-pyrrolidin-1-yl-ethyl)-amide]
Second: Cc1cc2nc(Nc3ccc(OCCN4CCCC4)cc3)nnc2cc1-c1cc(O)ccc1Cl [4-chloro-3-{6-methyl-3-[4-(2-pyrrolidin-1-yl-ethoxy)phenylamino]-benzo[1,2,4]triazin-7-yl}-phenol]
The IC50 of the first is 2.5-fold higher: 14.4 nM for the first, 5.7 nM for the second. The second is the more potent here.

Going from `Cc1cc(O)cc(C)c1-c1cc(C)c2nc(Nc3ccc(OCCN4CCCC4)cc3)nnc2c1` to `Cc1cc(-c2c(Cl)cccc2Cl)cc2nnc(Nc3ccc(OCCN4CCCC4)cc3)nc12` [[7-(2,6-dichloro-phenyl)-5-methyl-benzo[1,2,4]triazin-3-yl]-[4-(2-pyrrolidin-1-yl-ethoxy)-phenyl]-amine], the IC50 falls from 41.1 nM to 15 nM (2.7-fold). The second is the more potent here.

Compared with `Cc1cc2nc(Nc3ccc(OCCN4CCCC4)cc3)nnc2cc1-c1cccc(O)c1` [3-{6-methyl-3-[4-(2-pyrrolidin-1-yl-ethoxy)-phenylamino]-benzo[1,2,4]triazin-7-yl}-phenol], `CC(=O)Nc1cc(-c2c(C)cccc2C)cc2nnc(Nc3ccc(S(=O)(=O)NCCN4CCCC4)cc3)nc12` [N-{7-(2,6-dimethyl-phenyl)-3-[4-(2-pyrrolidin-1-yl-ethylsulfamoyl)-phenylamino]-benzo[1,2,4]triazin-5-yl}-acetamide] is 250-fold higher in IC50: 7.4 nM for the first, 1850 nM for the second. The first is the more potent here.
